Reference: US20230140926A1, “IONIC LIQUID, SOLVENT, PREPARATION, AND TRANSDERMALLY ABSORBABLE AGENT” (Kyushu University, National University Corporation, priority 2020, published 2023)

Assays:
[1] = system: stratum corneum; test: Influence on stratum corneum of skin (FTIR); set-up: species or system pig; settings: for Absorbance; CH2 asymmetric / Absorbance; CH2 symmetric / shift (cm^−1), CH2 asymmetric / shift (cm^−1), CH2 symmetric / shift (intensity), CH2 asymmetric / shift (intensity), CH2 symmetric: stratum corneum lipid; for Absorbance; CH2 asymmetric / Absorbance; CH2 symmetric / Absorbance; C═O amide-II / Absorbance; NH—C═O amide-I: FTIR, 30 minutes immersion; for shift (cm^−1), CH2 asymmetric / shift (cm^−1), CH2 symmetric / shift (intensity), CH2 asymmetric / shift (intensity), CH2 symmetric / shift (cm^−1), C═O amide-II / shift (cm^−1), NH—C═O amide-I / shift (intensity), C═O amide-II / shift (intensity), NH—C═O amide-I: versus untreated control; for Absorbance; C═O amide-II / Absorbance; NH—C═O amide-I / shift (cm^−1), C═O amide-II / shift (cm^−1), NH—C═O amide-I / shift (intensity), C═O amide-II / shift (intensity), NH—C═O amide-I: stratum corneum protein
Method: Frozen skin of a pig (YMPC, Hoshino Test Animal Breeding Co., Ltd.) was returned to room temperature, dried skin was warmed at 60° C. for from 60 to 120 seconds, and the epidermal layer was peeled from the skin. […] The isolated stratum corneum was washed with water and dried for an additional 24 hours. Sections of stratum corneum were immersed in test samples (IPM, Ionic Liquids 1, 2, 4, tween-80, DGME or PBS) in glass tubes for 30 minutes at room temperature. Stratum corneum sheets were washed with 20% ethanol and dried for 1 hour. The stratum corneum sheets were analyzed by Fourier transform infrared spectroscopy (FTIR) spectroscopy. Untreated stratum corneum was used as a control.

[2] = Evaluation of solubility of ionic liquids in a variety of solvents (visual); assay type: physicochemical; settings: 50:50 by weight, room temperature
Method: The solubility of ionic liquids in a variety of solvents was evaluated at room temperature. Specifically, Ionic Liquids 1 to 3 were placed in a glass tube with respective solvents and mixed by stirring with a vortex mixer for from 1 to 2 minutes. The ratio of Ionic Liquids 1 to 3 to the corresponding solvents was 50:50 by weight. The solubility and transparency of the obtained liquids (liquid samples) were visually observed and evaluated according to the following criteria.
∘: Ionic liquid is dissolved uniformly and the clarity of the liquid sample is high
Δ: Ionic liquid is uniformly dissolved, but liquid sample is cloudy
×: Ionic liquid and solvent are separated, and the ionic liquid is not dissolved in the solvent. The same evaluation was performed for intermediate 2 ([EDMPC][Cl]) as a comparison.

| Compound | Absorbance; CH2 asymmetric [1] [cm⁻¹] | Absorbance; CH2 symmetric [1] [cm⁻¹] | shift (cm^−1), CH2 asymmetric [1] [cm⁻¹] | shift (cm^−1), CH2 symmetric [1] [cm⁻¹] | shift (intensity), CH2 asymmetric [1] | shift (intensity), CH2 symmetric [1] | Absorbance; C═O amide-II [1] [cm⁻¹] | Absorbance; NH—C═O amide-I [1] [cm⁻¹] | shift (cm^−1), C═O amide-II [1] [cm⁻¹] | shift (cm^−1), NH—C═O amide-I [1] [cm⁻¹] | shift (intensity), C═O amide-II [1] | shift (intensity), NH—C═O amide-I [1] | Solubility and transparency in Dimethyl sulfoxide ([2]; solvent Dimethyl sulfoxide) | Solubility and transparency in Ethanol ([2]; solvent Ethanol) | Solubility and transparency in Isopropyl alcohol ([2]; solvent Isopropyl alcohol) | Solubility and transparency in Isopropyl myristate ([2]; solvent Isopropyl myristate) |
| --- | --- | --- | --- | --- | --- | --- | --- | --- | --- | --- | --- | --- | --- | --- | --- | --- |
| CCOCCOCCO [DGME, diethylene glycol monoethyl ether] | 2918 | 2853 | 0 | 2 | 2.37 | 1.25 | 1648 | 1541 | 1 | 4 | 18.00 | 14.31 |  |  |  |  |
| CCCCCCCCCCCCCC(=O)OC(C)C [IPM, isopropyl myristate] | 2920 | 2853 | 2 | 2 | 1.72 | 1.08 | 1648 | 1539 | 1 | 2 | 13.95 | 10.59 |  |  |  |  |
| CCCCCCCCCCCCCC(=O)OC[C@H](COP(=O)(OCC)OCC[N+](C)(C)C)OC(=O)CCCCCCCCCCCCC (stereo partly shown) [Intermediate 2, EDMPC chloride] |  |  |  |  |  |  |  |  |  |  |  |  | ◯ | ◯ | ◯ | ◯ |
| tween-80 | 2920 | 2853 | 2 | 2 | 2.80 | 1.30 | 1648 | 1542 | 1 | 5 | 19.01 | 16.14 |  |  |  |  |
